Assays:
[1] = biological target: T1, Voltage-dependent N-type calcium channel subunit alpha-1B (Homo sapiens, UniProt Q00975); experiment: Agonist activity at N-type Cav2.2 channel expressed in tsA201 cell assessed as calcium current by whole-cell patch clamp method; assay type: functional, cell-based
Target sequence in this assay (Q00975 whole entry): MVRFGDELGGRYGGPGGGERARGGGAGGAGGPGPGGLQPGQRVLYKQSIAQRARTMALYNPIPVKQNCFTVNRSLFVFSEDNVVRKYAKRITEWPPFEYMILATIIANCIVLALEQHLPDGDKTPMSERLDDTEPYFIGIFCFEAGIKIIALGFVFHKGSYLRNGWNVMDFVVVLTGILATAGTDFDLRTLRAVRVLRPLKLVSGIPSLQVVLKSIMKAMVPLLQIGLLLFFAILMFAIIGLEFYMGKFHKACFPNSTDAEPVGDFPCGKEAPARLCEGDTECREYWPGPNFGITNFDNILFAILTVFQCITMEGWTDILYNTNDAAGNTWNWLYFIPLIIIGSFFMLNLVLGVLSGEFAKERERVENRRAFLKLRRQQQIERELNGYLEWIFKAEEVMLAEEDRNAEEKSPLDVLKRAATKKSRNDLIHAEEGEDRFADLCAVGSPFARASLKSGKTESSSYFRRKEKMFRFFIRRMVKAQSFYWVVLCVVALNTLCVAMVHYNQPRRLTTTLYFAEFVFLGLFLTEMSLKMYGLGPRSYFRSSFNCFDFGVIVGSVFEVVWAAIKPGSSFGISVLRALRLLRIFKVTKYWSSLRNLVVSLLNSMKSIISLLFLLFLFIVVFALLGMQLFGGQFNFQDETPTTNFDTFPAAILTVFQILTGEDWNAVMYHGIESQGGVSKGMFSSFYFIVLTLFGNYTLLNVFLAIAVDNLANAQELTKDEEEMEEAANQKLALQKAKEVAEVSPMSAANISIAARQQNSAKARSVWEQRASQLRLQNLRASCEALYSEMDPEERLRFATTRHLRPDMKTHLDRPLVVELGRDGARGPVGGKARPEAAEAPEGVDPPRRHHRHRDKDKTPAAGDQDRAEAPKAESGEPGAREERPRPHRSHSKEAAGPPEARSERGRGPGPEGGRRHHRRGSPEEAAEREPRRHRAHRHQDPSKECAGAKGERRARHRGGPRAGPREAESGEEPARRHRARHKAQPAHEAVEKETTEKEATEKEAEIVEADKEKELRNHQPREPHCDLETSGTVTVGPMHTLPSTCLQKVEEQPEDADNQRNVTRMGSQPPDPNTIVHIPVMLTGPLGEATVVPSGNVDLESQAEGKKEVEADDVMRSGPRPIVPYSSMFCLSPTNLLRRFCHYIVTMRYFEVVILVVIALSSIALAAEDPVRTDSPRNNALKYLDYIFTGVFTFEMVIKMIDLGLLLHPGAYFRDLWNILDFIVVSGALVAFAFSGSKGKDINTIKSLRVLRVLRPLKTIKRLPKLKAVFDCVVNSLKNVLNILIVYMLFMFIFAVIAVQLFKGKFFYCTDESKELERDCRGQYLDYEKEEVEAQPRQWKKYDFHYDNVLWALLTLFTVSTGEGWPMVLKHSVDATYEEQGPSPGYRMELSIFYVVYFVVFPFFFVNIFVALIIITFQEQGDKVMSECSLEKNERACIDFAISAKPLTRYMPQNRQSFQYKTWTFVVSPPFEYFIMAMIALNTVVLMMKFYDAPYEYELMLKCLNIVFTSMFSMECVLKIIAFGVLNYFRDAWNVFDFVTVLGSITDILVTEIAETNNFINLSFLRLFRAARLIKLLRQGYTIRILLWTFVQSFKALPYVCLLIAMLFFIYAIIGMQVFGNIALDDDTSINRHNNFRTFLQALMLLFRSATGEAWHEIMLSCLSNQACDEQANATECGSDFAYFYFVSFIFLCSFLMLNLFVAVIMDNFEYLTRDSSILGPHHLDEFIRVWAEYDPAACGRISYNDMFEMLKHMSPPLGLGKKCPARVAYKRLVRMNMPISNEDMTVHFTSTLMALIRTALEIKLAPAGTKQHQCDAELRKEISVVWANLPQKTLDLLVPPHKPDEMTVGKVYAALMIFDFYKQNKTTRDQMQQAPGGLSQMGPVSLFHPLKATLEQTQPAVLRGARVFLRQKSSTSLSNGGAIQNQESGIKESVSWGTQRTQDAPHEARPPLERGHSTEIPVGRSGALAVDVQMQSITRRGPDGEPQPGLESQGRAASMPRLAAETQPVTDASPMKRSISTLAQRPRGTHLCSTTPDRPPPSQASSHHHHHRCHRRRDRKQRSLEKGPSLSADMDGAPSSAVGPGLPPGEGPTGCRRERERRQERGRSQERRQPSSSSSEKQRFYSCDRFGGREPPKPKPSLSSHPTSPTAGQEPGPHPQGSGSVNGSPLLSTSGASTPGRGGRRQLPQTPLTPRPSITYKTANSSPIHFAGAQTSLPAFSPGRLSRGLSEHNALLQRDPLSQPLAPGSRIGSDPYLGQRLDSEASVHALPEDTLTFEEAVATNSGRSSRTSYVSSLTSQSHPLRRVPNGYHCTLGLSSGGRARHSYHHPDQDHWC

[2] = biological target: Cyclin-dependent kinase 2/cyclin A (Homo sapiens, UniProt P24941); experiment: Inhibition of human Cdk2/cyclin A activity; assay type: protein-complex assay
[3] = biological target: T1, Voltage-dependent N-type calcium channel subunit alpha-1B; experiment: Ratio of (R)-roscovitine EC50 to compound EC50 for N-type Cav2.2 channel
Target sequence in this assay (Q00975 whole entry, looked up): as the sequence (Q00975 whole entry) above

[4] = biological target: Mitogen-activated protein kinase 1 (Homo sapiens, UniProt P28482); experiment: Inhibition of human MAPK1
[5] = biological target: Myosin light chain kinase, smooth muscle (Homo sapiens, UniProt Q15746); experiment: Inhibition of human MLCK
[6] = biological target: Cyclin-dependent kinase 5/CDK5 activator 1 (Homo sapiens, UniProt Q00535); experiment: Inhibition of human Cdk5/p35 activity; assay type: protein-complex assay
[7] = biological target: Cyclin-dependent kinase 1/cyclin B1 (Homo sapiens, UniProt P06493); experiment: Inhibition of human Cdk1/cyclin B activity; assay type: protein-complex assay
[8] = biological target: Voltage-dependent L-type calcium channel subunit alpha-1D (Homo sapiens, UniProt Q01668); experiment: Agonist activity at L-type Cav1.3 expressed in tsA201 cell assessed as calcium current by whole-cell patch clamp method; assay type: functional, cell-based
[9] = biological target: Voltage-dependent P/Q-type calcium channel subunit alpha-1A (Homo sapiens, UniProt O00555); experiment: Agonist activity at P/Q-type Cav2.1 expressed in tsA201 cell assessed as calcium current by whole-cell patch clamp method; assay type: functional, cell-based

Voltage-dependent L-type calcium channel subunit alpha-1D, sequence (Q01668 whole entry): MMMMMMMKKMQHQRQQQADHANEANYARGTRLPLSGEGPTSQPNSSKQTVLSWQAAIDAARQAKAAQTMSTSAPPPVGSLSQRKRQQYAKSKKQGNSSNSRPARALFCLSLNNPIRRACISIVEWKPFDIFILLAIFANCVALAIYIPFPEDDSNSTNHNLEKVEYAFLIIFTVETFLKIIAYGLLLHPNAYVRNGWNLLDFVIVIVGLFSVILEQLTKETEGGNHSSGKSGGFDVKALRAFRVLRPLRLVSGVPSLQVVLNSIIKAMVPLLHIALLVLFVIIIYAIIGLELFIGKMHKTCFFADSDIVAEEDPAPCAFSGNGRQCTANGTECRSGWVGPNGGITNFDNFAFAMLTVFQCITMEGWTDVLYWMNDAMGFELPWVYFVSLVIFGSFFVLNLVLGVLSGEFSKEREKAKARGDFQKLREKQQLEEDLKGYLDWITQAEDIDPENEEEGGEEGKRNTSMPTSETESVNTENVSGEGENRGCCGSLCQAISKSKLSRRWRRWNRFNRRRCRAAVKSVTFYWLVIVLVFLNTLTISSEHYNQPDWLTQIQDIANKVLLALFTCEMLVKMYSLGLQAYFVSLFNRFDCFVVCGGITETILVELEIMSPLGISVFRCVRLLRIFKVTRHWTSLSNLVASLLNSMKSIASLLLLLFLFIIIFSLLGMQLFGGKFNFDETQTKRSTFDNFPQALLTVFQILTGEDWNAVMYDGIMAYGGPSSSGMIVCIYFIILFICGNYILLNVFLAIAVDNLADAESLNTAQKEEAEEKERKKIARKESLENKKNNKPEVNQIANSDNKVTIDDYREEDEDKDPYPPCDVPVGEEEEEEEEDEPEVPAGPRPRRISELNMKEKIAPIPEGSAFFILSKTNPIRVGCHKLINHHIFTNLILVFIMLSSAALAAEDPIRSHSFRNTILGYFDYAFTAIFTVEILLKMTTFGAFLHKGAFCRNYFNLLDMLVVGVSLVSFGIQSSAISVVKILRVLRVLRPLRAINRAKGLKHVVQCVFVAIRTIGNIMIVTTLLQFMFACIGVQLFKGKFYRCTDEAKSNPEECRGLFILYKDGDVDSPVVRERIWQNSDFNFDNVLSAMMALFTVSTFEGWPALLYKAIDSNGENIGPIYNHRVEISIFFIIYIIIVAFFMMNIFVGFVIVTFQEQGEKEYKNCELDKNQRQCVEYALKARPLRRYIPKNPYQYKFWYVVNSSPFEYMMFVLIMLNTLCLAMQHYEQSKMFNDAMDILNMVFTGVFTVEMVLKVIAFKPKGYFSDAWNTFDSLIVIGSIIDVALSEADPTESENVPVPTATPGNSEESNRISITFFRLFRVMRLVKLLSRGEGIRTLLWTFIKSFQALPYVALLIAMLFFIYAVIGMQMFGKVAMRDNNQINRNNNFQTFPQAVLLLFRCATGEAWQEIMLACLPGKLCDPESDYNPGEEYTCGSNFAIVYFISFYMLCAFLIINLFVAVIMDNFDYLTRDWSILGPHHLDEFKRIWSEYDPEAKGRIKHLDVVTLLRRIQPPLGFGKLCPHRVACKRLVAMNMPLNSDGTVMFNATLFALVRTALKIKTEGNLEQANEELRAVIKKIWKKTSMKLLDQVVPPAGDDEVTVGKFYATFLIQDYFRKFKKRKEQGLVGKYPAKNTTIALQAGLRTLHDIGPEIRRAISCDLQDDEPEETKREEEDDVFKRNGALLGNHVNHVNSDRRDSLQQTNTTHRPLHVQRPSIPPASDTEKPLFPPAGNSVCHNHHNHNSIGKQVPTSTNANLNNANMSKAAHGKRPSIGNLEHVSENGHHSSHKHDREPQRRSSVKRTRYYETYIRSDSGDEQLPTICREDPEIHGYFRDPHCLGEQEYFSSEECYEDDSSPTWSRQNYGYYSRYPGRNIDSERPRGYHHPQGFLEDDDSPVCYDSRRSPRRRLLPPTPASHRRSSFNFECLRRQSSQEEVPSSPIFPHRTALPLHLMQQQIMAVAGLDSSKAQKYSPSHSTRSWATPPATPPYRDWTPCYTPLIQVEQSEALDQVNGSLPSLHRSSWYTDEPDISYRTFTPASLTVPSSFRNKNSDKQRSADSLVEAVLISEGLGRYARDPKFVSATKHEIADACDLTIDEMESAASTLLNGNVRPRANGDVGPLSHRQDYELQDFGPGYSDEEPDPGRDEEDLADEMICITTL
Cyclin-dependent kinase 5/CDK5 activator 1, sequence (Q00535 whole entry): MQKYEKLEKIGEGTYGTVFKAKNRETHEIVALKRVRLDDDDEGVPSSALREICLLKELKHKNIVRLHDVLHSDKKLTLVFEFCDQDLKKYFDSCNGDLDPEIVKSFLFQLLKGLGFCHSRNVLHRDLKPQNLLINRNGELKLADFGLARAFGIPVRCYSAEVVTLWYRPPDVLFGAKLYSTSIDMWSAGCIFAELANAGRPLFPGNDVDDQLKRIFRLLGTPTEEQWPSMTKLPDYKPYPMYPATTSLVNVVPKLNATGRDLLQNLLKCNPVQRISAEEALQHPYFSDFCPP
Cyclin-dependent kinase 5/CDK5 activator 1, sequence (Q15078 whole entry, further chain): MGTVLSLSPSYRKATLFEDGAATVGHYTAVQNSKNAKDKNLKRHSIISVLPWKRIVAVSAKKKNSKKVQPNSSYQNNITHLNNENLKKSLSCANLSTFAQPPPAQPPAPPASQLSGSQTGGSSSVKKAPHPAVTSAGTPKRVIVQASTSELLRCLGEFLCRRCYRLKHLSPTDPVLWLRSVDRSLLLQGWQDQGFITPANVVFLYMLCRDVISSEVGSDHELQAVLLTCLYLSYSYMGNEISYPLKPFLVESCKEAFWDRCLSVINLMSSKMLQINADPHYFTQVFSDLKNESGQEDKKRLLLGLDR

EC50 [1] [µM] | SMILES | further results
> 100 | CCCn1cnc2c(NCc3cccnc3)nc(N[C@H](CC)CO)nc21 | –
> 100 | CCCn1cnc2c(NCc3ccc(C(F)(F)F)cc3)nc(N[C@H](CC)CO)nc21 | –
11.3 | CC[C@H](CO)Nc1nc(NCc2ccc(C)s2)c2ncn(C(C)C)c2n1 | –
> 100 | CC[C@H](CO)Nc1nc(NCCc2ccccc2)c2ncn(C)c2n1 | –
> 1000 | CC[C@H](CO)Nc1nc(N(Cc2ccccc2)Cc2ccccc2)c2ncn(C(C)C)c2n1 | –
14.2 | CCCn1cnc2c(NCc3ccccc3)nc(N[C@H](CC)CO)nc21 | –
30 | CC[C@H](CO)Nc1nc(NCc2ccc(C)s2)c2ncn(C)c2n1 | EC50 [2]: 3.04 µM
> 100 | CC[C@H](CO)Nc1nc(NCc2ccc(-c3ccccc3)cc2)c2ncn(C(C)C)c2n1 | –
> 1000 | CC(C)n1cnc2c(NCc3ccccc3)nc(NCCO)nc21 | –
> 100 | CCCn1cnc2c(NCc3ccc(-c4ccccc4)cc3)nc(N[C@H](CC)CO)nc21 | –
> 1000 | CN(C)CCNc1nc(NCc2ccccc2)c2ncn(C)c2n1 | –
> 100 | CC[C@H](CO)Nc1nc(NCCc2ccccc2)c2ncn(C(C)C)c2n1 | –
> 70 | CC[C@H](CO)Nc1nc(NCc2ccccc2)c2ncn(C)c2n1 | –
> 1000 | CC[C@H](CO)Nc1nc(N(C)Cc2ccccc2)c2ncn(C(C)C)c2n1 | –
> 100 | CC[C@H](CO)Nc1nc(NCc2cccc(C(F)(F)F)c2)c2ncn(C(C)C)c2n1 | –
80 | CC[C@H](CO)Nc1nc(NCc2ccccc2O)c2ncn(C(C)C)c2n1 [OLOMOUCINE II] | –
7.21 | CCCn1cnc2c(NCc3ccc(C)s3)nc(N[C@H](CC)CO)nc21 | Ratio EC50 [3]: 4; EC50 [4]: > 20 µM; EC50 [5]: > 20 µM; EC50 [6]: 3.03 µM; EC50 [7]: 20.6 µM; EC50 [8]: > 100 µM; EC50 [9]: 8.8 µM; EC50 [2]: 3.29 µM

EC50 [1] [µM] | SMILES | further results
> 100 | CCCn1cnc2c(NCCc3ccccc3)nc(N[C@H](CC)CO)nc21 | –
> 100 | CC[C@H](CO)Nc1nc(NCc2cccnc2)c2ncn(C(C)C)c2n1 | –
> 100 | CC[C@H](CO)Nc1nc(NC(c2ccccc2)c2ccccc2)c2ncn(C(C)C)c2n1 | –
< 100 | CC[C@H](CO)Nc1nc(NCc2ccccc2)n2ncc(C(C)C)c2n1 | –
> 100 | CCCn1cnc2c(Nc3ccccc3)nc(N[C@H](CC)CO)nc21 | –
> 100 | CC[C@H](CO)Nc1nc(NCc2cccnc2)c2ncn(C)c2n1 | –
> 100 | CC[C@H](CO)Nc1nc(NCC2CC2)c2ncn(C(C)C)c2n1 | –
> 100 | CC[C@H](CO)Nc1nc(NCc2ccc(-c3ccccc3)cc2)c2ncn(C)c2n1 | –
> 100 | CC[C@H](CO)Nc1nc(NCC2CC2)c2ncn(C)c2n1 | –
> 1000 | O=Nc1c(-c2c(O)[nH]c3ccccc23)[nH]c2ccccc12 [INDIRUBIN-3-MONOXIME] | –
> 100 | CCCn1cnc2c(NCC3CC3)nc(N[C@H](CC)CO)nc21 | EC50 [2]: 3.63 µM
> 1000 | Cn1cnc2c(NCc3ccccc3)nc(NCCO)nc21 [OLOMOUCINE] | –
> 100 | CC[C@H](CO)Nc1nc(Nc2ccccc2)c2ncn(C)c2n1 | –
> 100 | CC[C@H](CO)Nc1nc(NC(c2ccccc2)c2ccccc2)c2ncn(C)c2n1 | –
> 1000 | Cn1cnc2nc(NCCO)nc(NCc3ccccc3)c21 | –
> 100 | CCCn1cnc2c(NC(c3ccccc3)c3ccccc3)nc(N[C@H](CC)CO)nc21 | –
> 1000 | O=c1[nH]c2ccccc2c2[nH]c3ccc(Br)cc3c12 | –

SMILES | EC50 [1] [µM] | further results
CC(C)n1cnc2c(NCc3ccccc3)nc(NCCCO)nc21 [BOHEMINE] | > 1000 | –
